System: sodium channel in hTRPV1-N1E115 cells
Assay: FLIPR membrane potential assay of sodium channel response in hTRPV1-N1E115 cells, with (47° C.) or without (25° C.) heat activation of hTRPV1
Assay type: cell-based
Conditions: for hTRPV1-N1E Nav 0.1 mM (% inhibition) 25° C. / hTRPV1-N1E Nav 1 mM (% inhibition) 25° C.: 25° C. (no heat activation of hTRPV1); for hTRPV1-N1E Nav 0.1 mM (% inhibition) 47° C. / hTRPV1-N1E Nav 1 mM (% inhibition) 47° C.: 47° C. (heat activation of hTRPV1); for IC50: class symbols, read-out: hTRPV1-N1E IC50 (μM) 47° C.
Description: In one embodiment, a modified FLIPR® (Fluorometric Imaging Plate Reader) based assay system was developed which is capable of discriminating between non-specific versus hTRPV1-mediated entry of test compounds. Advantageously, the assay system utilizes heat activated opening of hTRPV1 channels followed by an assessment of internal sodium channel block. The assay allows a permanently charged compound to selectively enter through opened hTRPV1 channels and that compound's potency in inhibiting sodium channels from the cytoplasm side of the same cell can be assessed and quantified.
The assay is readily performed in multi-well assay plates into which cells in growth media are added and incubated under conditions which permit the formation of a confluent monolayer over a period of hours prior to the start of the assay. Conventional culture media and conditions may be utilized. Duplicate cell assay plates are prepared for each experiment.
The spent media from the cell seeded plates is removed on the day of the assay and replaced with Membrane potential Dye-Blue (Molecular Devices). The dye was prepared in assay buffer following manufacturer's instructions. The dye-loaded plate is incubated at room temperature (about 25° C.) for about 30 minutes in order to pre-load the cells with dye. Optionally, the cells may be loaded with the dye simultaneously with adding the test compounds.
The test compounds are diluted in the Assay Buffer and added to each well of a specific 384-well ‘compound plate’, which serves as a source plate for compound addition using the FLIPR® platform. The concentration of compounds in the compound-plate was adjusted to achieve the desired final concentration when added to the cells in the ‘cell-plate’. After completion of the dye incubation period, the dye loaded cell-plates and the compound source plates are inserted into the FLIPR® Tetra™ device with a 384 FLIPR® tip box (Molecular Devices, Inc.) according to manufacturer's instructions. The compounds are robotically added to the dye loaded cell-plates using software integral to the FLIPR® Tetra™ instrument.
Immediately following compound addition, hTRPV1 is activated, in one of the duplicate cell plates, by heating. Specifically, entire multi-well plate containing the compound-cells mixture is incubated at 47° C. for 10 minutes, after which they are returned to room temperature (about 25° C.) for a further 30 minutes. Heat activation of hTRPV1 was omitted from the replicate cell plate which was simply maintained at room temperature for the entire 40 minutes.
A membrane potential response is elicited in the dye- and compound-loaded cells by the addition of veratridine which is a known sodium channel ‘agonist’. As illustrated in an example herein, an agonist plate containing veratridine (Sigma) is prepared in advance and is inserted into suitable devices such as, e.g., the FLIPR® TETRA® device for a “2nd addition” as instructed by the manufacturer. The concentration of veratridine in the ‘agonist plate’ was adjusted to achieve a final concentration of 100 μM when added to the cells in the cell-plate. Final concentrations of veratridine greater or lesser than 100 μM may also be used but the signal measured by the FLIPR®^Tetra™ device or another suitable device may vary accordingly.
The exposure of the cells in the cell-plate to veratridine induces sodium channels in the cells to open and the resulting ion flux produces a membrane potential depolarization that is detected as a fluorescence signal by the FLIPR® ^Tetra™ Device. The activity of test compounds is determined by their ability to attenuate the veratridine-induced fluorescence signal, the most promising compounds are those that show an enhanced activity in the heat-activated cell plate over the non-heat-activated cell plate. […]

| SMILES | hTRPV1-N1E Nav 0.1 mM (% inhibition) 25° C. (0.1 mM) | hTRPV1-N1E Nav 0.1 mM (% inhibition) 47° C. (0.1 mM) | hTRPV1-N1E Nav 1 mM (% inhibition) 25° C. | hTRPV1-N1E Nav 1 mM (% inhibition) 47° C. | IC50 (47° C.) | hTRPV1-N1E Nav 0.1 mM (% inhibition) 25° C., DMSO (0.1 mM, DMSO, 25° C.) | hTRPV1-N1E Nav 0.1 mM (% inhibition) 47° C., DMSO (0.1 mM, DMSO, 47° C.) |
| --- | --- | --- | --- | --- | --- | --- | --- |
| CC[N+]1(CC)CCCCC1CCN(c1ccccc1C)C1Cc2ccccc2C1.[I-] (stereo not shown) [Example 25, 1,1-Diethyl-2-[2-((indan-2-yl)(2-methylphenyl)amino)ethyl]piperidinium iodide] | 26.4% | 89.6 (N = 2) % | Insoluble | Insoluble | 1 to 10 µM |  |  |
| CCC[N+]1(CCC)CCCC[C@H]1CCN(c1ccccc1)C1Cc2ccccc2C1.[I-] [Example 1, (S)-1,1-dipropyl-2-[2-((indan-2-yl)(phenyl)amino)ethyl]piperidinium iodide] |  |  |  |  |  | 56% | 87 (N = 4, DMSO) % |
| Cc1cccc(N(CC2CCCC[N+]2(C)C)C2Cc3ccccc3C2)c1.[I-] (stereo not shown) [Example 29, 1,1-Dimethyl-2-[((indan-2-yl)(3-methylphenyl)amino)methyl]piperidinium iodide] | 68.9% | 82.9 (N = 2) % | 64.6 (N = 2) % | 75.3 (N = 2) % |  |  |  |
| C[N+]1(C)CCCC[C@@H]1CN(c1ccccc1)C1Cc2ccccc2C1 [Example 33, (R)-1,1-Dimethyl-2-[((indan-2-yl)(phenyl)amino)methyl]piperidinium iodide] |  |  |  |  | 10 to 100 µM |  |  |
| Cc1ccccc1N(CCC1CCCC[N+]12CCOCC2)C1Cc2ccccc2C1.[Cl-] (stereo not shown) [Example 41, 7-[2-((indan-2-yl)(2-methylphenyl)amino)ethyl]-3-oxa-6-azaspiro[5.5]undecan-6-ium chloride] | 8.3% |  |  |  | 10 to 100 µM |  |  |
| C[N+]1(C)CCCCC1CN(c1ccc(F)cc1)C1Cc2ccccc2C1.[I-] (stereo not shown) [Example 28, 1,1-Dimethyl-2-[((4-fluorophenyl)(indan-2-yl)amino)methyl]piperidinium iodide] | 30.2% | 43.7 (N = 2) % | 61.8 (N = 2) % | 86.6 (N = 2) % |  |  |  |
| C[N+]1(C)CCCCC1CCN(c1cccc(F)c1)C1Cc2ccccc2C1.[I-] (stereo not shown) [Example 14, 1,1-dimethyl-2-[2-((3-fluorophenyl)(indan-2-yl)amino)ethyl]piperidinium iodide] | 6.3% | 76.7 (N = 3) % | 3.8 (N = 3) % | 25.3 (N = 3) % | 10 to 100 µM |  |  |
| CC[N+]1(CC)CCCC1CCN(c1ccccc1)C1Cc2ccccc2C1.[I-] (stereo not shown) [Example 36, 1,1-diethyl-2-[2-((indan-2-yl)(phenyl)amino)ethyl]pyrrolidinium iodide] | 5.4% | 74.0 (N = 2) % |  |  | 10 to 100 µM |  |  |
| C[N+]1(C)CCCCC1CCCN(c1ccccc1)C1Cc2ccccc2C1.[I-] (stereo not shown) [Example 7] | 27.3% | 57.9 (N = 2) % | Insoluble | Insoluble | 10 to 100 µM |  |  |
| C[N+]1(C)CCCCC1CCN(c1ccccn1)C1Cc2ccccc2C1.[I-] (stereo not shown) [Example 37, 1,1-dimethyl-2-[2-((indan-2-yl)(pyridine-2-yl)amino)ethyl]piperidinium iodide] | 21.5% | 60.7 (N = 2) % | 59.5 (N = 2) % | 24.0 (N = 2) % | 10 to 100 µM |  |  |
| CC[N+]1(CC)CCCCC1CN(c1ccc(C)cc1)C1Cc2ccccc2C1.[I-] (stereo not shown) [Example 30, 1,1-Diethyl-2-[((indan-2-yl)(4-methylphenyl)amino)methyl]piperidinium iodide] | 59.4% | 97.2 (N = 2) % | Insoluble | Insoluble |  |  |  |
| Cc1ccccc1N(CCC1CC[N+](C)(C)CC1)C1Cc2ccccc2C1.[I-] [Example 45, 1,1-Dimethyl-4-[2-((indan-2-yl)(2-methylphenyl)amino)ethyl]piperidinium iodide] | 23.1% | 83.3 (N = 2) % |  |  |  |  |  |
| Cc1ccccc1N(CC[C@H]1CCCC[N+]1(C)C)C1Cc2ccccc2C1 [Example 51, (R)-1,1-Dimethyl-2-[2-((indan-2-yl)(2-methylphenyl)amino)ethyl]piperidinium chloride] |  |  |  |  | 1 to 10 µM |  |  |
| CC[N+]1(CC)CCCCC1CN(c1ccccc1)C1Cc2ccccc2C1.[I-] (stereo not shown) [Example 13, 1,1-Diethyl-2-[((indan-2-yl)(phenyl)amino)methyl]piperidinium iodide] | 67% | 99 (N = 2) % | 64 (N = 2) % | 92 (N = 2) % | 10 to 100 µM |  |  |
| C[N+]1(C)CCCC1CCN(c1ccccc1)C1Cc2ccccc2C1.[I-] (stereo not shown) [Example 5, 1,1-dimethyl-2-[2-((indan-2-yl)(phenyl)amino)ethyl]pyrrolidinium iodide] | 21% | 50 (N = 2) % |  |  | 10 to 100 µM |  |  |
| [Br-].c1ccc(N(CCC2CCCC[N+]23CCCC3)C2Cc3ccccc3C2)cc1 (stereo not shown) [Example 20, 6-[2-((Indan-2-yl)(phenyl)amino)ethyl]-5-azoniaspiro[4.5]decane bromide] | 11.2% | 94.8 (N = 3) % | 0 (N = 3) % | 48.9 (N = 3) % | 10 to 100 µM |  |  |
| C[N+]1(C)CCCC[C@H]1CN(c1ccccc1)C1Cc2ccccc2C1 [Example 32, (S)-1,1-Dimethyl-2-[((indan-2-yl)(phenyl)amino)methyl]piperidinium iodide] |  |  |  |  | 10 to 100 µM |  |  |
| CC[N+]1(CC)CCCC[C@H]1CCN(c1ccccc1)C1Cc2ccccc2C1.[Br-] [Example 49, (S)-1,1-Diethyl-2-[2-((indan-2-yl)(phenyl)amino)ethyl]piperidinium bromide] | 22.2% |  |  |  | 10 to 100 µM |  |  |
| Cc1cccc(N(CCC2CCCC[N+]2(C)C)C2Cc3ccccc3C2)c1.[I-] (stereo not shown) [Example 19, 1,1-Dimethyl-2-[2-((indan-2-yl)(3-methylphenyl)amino)ethyl]piperidinium iodide] | 0% | 87.9% | Insoluble | Insoluble | 10 to 100 µM |  |  |

From patent US8865741B2, “Aminoindane compounds and use thereof in treating pain” (Asana Biosciences, LLC, priority 2011, dated 2014)
